From ChEMBL document CHEMBL1129881 (Bioorg Med Chem Lett, 1997)

Biological target: Vasopressin V2 receptor (Sus scrofa, UniProt P32307)
Assay: Tested for the inhibition to V2 subtype receptor using [3H]- (VS2) as radioligand at 3 nM and arginine-vasopressin at 2 uM in LLCPKI cells
Assay type: cell-based

Chain of Vasopressin V2 receptor (P32307 whole entry): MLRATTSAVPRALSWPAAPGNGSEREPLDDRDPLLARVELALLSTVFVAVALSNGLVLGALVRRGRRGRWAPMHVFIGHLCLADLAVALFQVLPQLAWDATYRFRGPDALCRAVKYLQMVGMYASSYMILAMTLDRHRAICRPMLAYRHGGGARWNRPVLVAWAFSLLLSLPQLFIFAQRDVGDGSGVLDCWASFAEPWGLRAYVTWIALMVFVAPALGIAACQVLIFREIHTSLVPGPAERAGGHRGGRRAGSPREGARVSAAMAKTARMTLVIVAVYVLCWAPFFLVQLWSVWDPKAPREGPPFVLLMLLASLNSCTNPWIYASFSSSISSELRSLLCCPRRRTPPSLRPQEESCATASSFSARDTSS

NC(=O)CC[C@@H]1NC(=O)[C@H](Cc2ccccc2)NC(=O)[C@H](Cc2ccc(O)cc2)NC(=O)[C@@H](N)CSSSC[C@@H](C(=O)N2CCC[C@H]2C(=O)N[C@@H](CCCN=C(N)N)C(=O)NCC(N)=O)NC(=O)[C@H](CC(N)=O)NC1=O
IC50: 9.5 nM
